The subject of one data set is C10-induced paralysis. The experiment in a line: Mobility recovery assessment in a mouse model (Rotarod). The conditions noted are these: mice given C10 0.53 mg/kg, no 1b. The class given is in vivo, Female Balb/c mice. On the procedure:
Mobility recovery assessment in a mouse model: the trained mice for 4 days were i.v. administered with either 4 mg/kg or 6 mg/kg of 1b, or saline, 30 seconds after administering 0.53 mg/kg C10. The mice were then placed on the rotor, and the time taken to move on the rotor for 30 seconds successfully was recorded.
In general terms: The rotarod test checks motor coordination on a turning rod.

Data set [1] relates to Balb/c mice. The experiment in a line: C10-induced paralysis dose in a mouse model (Rotarod). The class given is in vivo, Female Balb/c mice. The conditions noted are these: C10 i.v., probit analysis. As for the experimental part:
Determination of C10-induced paralysis dose in a mouse model: The movement behavior was conducted with the Rotarod rotor (ZB-200). Female Balb/c mice (8-9 weeks old) weighing 18-22 g were placed on the Rotarod rotor and trained three times for 30 minutes, three times a day for three consecutive days. On day 4, Dixon's up-and-down method was employed to explore the effective dose: The initial dose of C10 to the first mouse was 0.6 mg/kg, and the standard dose ratio of C10 given to the adjacent mouse was 0.8. […] Conversely, in the case of a negative response, the following mouse received an increased dose. Tests were conducted sequentially, with changes in mobility response transitioning between positive and negative until at least 7 crossover points were reached. Probit analysis was employed to determine the ED50 (50% effective dose) and ED95 (95% effective dose) of C10, along with their corresponding CI (confidence intervals). Sequence diagrams and dose-response curves were generated using GraphPad Prism 9 software.

The next data set deals with mice. As to the kind of experiment: Lethal C10 poisoning mouse model (Dixon's up-and-down, probit). The class given is in vivo. The conditions noted are these: C10 i.v., probit analysis. As for the experimental part:
(§1) Lethal C10 poisoning mouse model: the lethal dose of i.v. administered C10 was calculated using Dixon's up-and-down method similar to TC. The initial dose of C10 was 0.9 mg/kg. Subsequent doses for each mouse were adjusted by ±0.1 mg/kg based on the outcome of the preceding animal.

Assay in data set [2]: as above
It counts as in vivo. As to conditions: Balb/c, mouse, in vivo, iv; C10 i.v., mice, probit analysis. As for the experimental part:
as §1

The nature of data set [3]: Plasma pharmacokinetics of C10, saline- and 1b-treated groups. The class given is in vivo, Male Kunming mice. As to conditions: for AUC(0-inf) / AUC(0-t) / Cmax / MRT last / MRT inf / half-life / Vd: plasma; for MRT last: read-out: MRT0-t; for MRT inf: read-out: MRT0-∞; for half-life: read-out: T1/2z (converted); for Vd: read-out: Vz. As for the experimental part: Male Kunming mice (30 ± 2 g) were used in the pharmacokinetic study. Drugs were injected through the tail vein of mice. Blood, liver, and kidney tissues were collected at certain intervals after administration with 6 mice at each time point. Blood samples were placed in heparin sodium tubes and centrifuged at 6000 rpm for 20 minutes at 4^ oC to obtain plasma samples. Plasma, liver and kidney tissues were stored in a freezer at -80 °C and frozen until analysis was performed. The drug concentrations were determined by Liquid chromatography-mass spectrometry (Waters ACQUITY UPLC/Xevo TQ-S). The Masslynx 4.1 software was used to obtain the peak area of the tested compounds and internal standards in each plasma sample and calculate the standard curve formula. […] The detailed pharmacokinetics experiment procedure including materials and reagents, sample preparation, establishment and validation of analytical strategy, and LC-MS conditions are described in the Supporting Information.
1.3. A dministration and collection of plasma samples
Male Kunming mice (30±2g) were randomly divided into 5 groups, namely 1b group (dose 80mg/kg, concentration 20mg/ml), C10 group (dose 0.45mg/kg, concentration 0.125mg/ml, C10 injection for 30s followed by the same volume of normal saline), 1b combined with C10 group (C10 dose 0.45 mg/kg, C10 concentration 0.125mg/ml, C10 injection for 30s followed by 1b 6 mg/kg, 1b concentration 1.5 mg/ml). Drugs were injected through the tail vein of mice. In group 1b , eyeball blood and liver and […]
after administration, with 6 mice in each time point. In the other four groups, blood and liver and kidney tissues were collected from eyeballs at 3min, 5min, 10min, 15min, 30min, 45min and 1h after administration. Six mice were selected at each time point. Blood samples were placed in heparin sodium tubes and centrifuged at 6000rpm for 20 minutes at 4℃ to obtain plasma samples. They were stored in a refrigerator at - 80 ° C and frozen until analysis. Plasma, liver and kidney tissues were stored in a freezer at - 80 ℃ and then frozen until analysis was performed.
1.4. Preparation of Calibration Standards and Quality Control (QC) Samples 1b, C10, and IS were dissolved separately in methanol to get a stock solution concentration of 1.0 mg/mL. The stock solution of the drug to be tested was then diluted with methanol to prepare the working solution. Calibration standards and QC samples were prepared by diluting the working solution with methanol. The final concentrations of C10 were 25, 250 and 1000 ng/mL, 1b final concentration of 150, 1500 and 6000 ng/mL.The final concentration of IS is 10 ng/mL.
1.5.Mouse plasma sample preparation
The plasma to be tested was thawed at room temperature, and 100 μL of mouse plasma samples were collected in 1.5 mL EP tubes. 10 μL of IS solution (10 ng/mL) and 10 μL of methanol were mixed followed by the addition of 400 μL […] (1:1 v / v), and then the tubes were vortex mixed for 3.0 min.
After centrifugation at 13,000 rpm for 20 min at 4 °C, the supernatant was transferred to a nitrogen blower, and the solvent was dried by maintaining a steady flow of nitrogen. After drying the solvent, reconstituted with 100 μL 20% aqueous methanol

Data set [4] deals with Balb/c mice. The experiment in a line: Lethal TC poisoning mouse model (Dixon's up-and-down, probit). It counts as in vivo, female Balb/c mice. The conditions noted are these: TC i.v., probit analysis. On the procedure: (§2) Lethal TC poisoning mouse model: the lethal dose of i.v. administered TC was calculated in mice (8-10 week old female Balb/c mice, weighing 20-25 g) using Dixon's up-and-down method. The initial dose of TC given to the first mouse was 9.0 mg/kg, and the standard dose ratio of TC given to the adjacent mouse was 0.9. If the animal survives, the subsequent animal receives a higher dose. If the animal dies, the following animal receives a lower dose. This process was repeated until at least seven crossover points were achieved. Probit analysis was employed to determine the LD50 (50% lethal dose) and LD95 (95% lethal dose) of TC, along with their corresponding CI (confidence intervals). Sequence diagrams and dose-response curves were generated using GraphPad Prism 9 software.

Assay in data set [5]: as above
It counts as in vivo, female Balb/c mice. As to conditions: female, Balb/c, mouse, in vivo, iv, TC i.v., mice, probit analysis. As for the experimental part:
as §2

The test system of data set [6] is AC16 cells. As to the kind of experiment: Intracellular sodium levels. The class given is cell-based, Human. The conditions noted are these: TC 400 µM, 10 minutes. As for the experimental part: Determination of intracellular sodium levels: 3×10^5 AC16 cells were seeded in 6-well plates with 2 mL of medium. After 12 hours, the cell medium was replaced with 400 µM TC and varying concentrations of compound 1b (ammonium salt, 0, 400, 800, and 2000 µM) or 2000 µM 1b in HBSS for 10 minutes at 37 °C. Control cells were treated with 2 mL HBSS for 10 minutes at 37 °C. After washing with PBS, cells were lysed in 300 µL of 1% Triton X-100 in saline with a 1% proteinase inhibitor cocktail from Meilunbio. The lysates were centrifuged at 12,000 ×g for 15 minutes, and the supernatant was collected for sodium level determination (7600 Modular-Hitachi-Chemistry Analyzer) and total protein content BCA assays (Epizyme Biotech). The sodium-to-protein ratio was calculated, presenting results as relative intracellular sodium content compared to the control group.

In the next data set the test system is Human myocytes AC16 cell. As to the kind of experiment: CCK-8 cytotoxicity assay in AC16 cells. The class given is cell-based. The conditions noted are these: 24 h, 24 h incubation, mixtures in a 1:1 ratio. On the procedure:
Cells experiments: AC16 cells were cultured in DMEM/F12 with 10% FBS, 1% penicillin, and 1% streptomycin at 37 °C with 5% CO2, and passaged every 2 days. They were seeded into 96-well plates at a density of 5-8×10^3 cells per well and cultured overnight. Then, different concentrations of TC, 1a, 1b, TC@1a and TC@1b mixture solution at various concentrations (25, 50, […], […], 200, 400, 800, and 1600 μM) were added to replace the culture medium for 24 h at 37 °C. After incubation, Cell Counting Kit-8 solution (10 μL per well) was added, and cells were incubated for 4 h at 37 °C. The optical density values at 450 nm were measured using a microplate reader to assess cell viability as a percentage of control cells. Finally, IC50 values were calculated using GraphPad Prism 8.0.2 software.
The assay and cell viability were calculated as in the cell experiment above.
A general note: Formazan colour is commonly taken as a measure of viable cells.

For data set [7], the system named is AC16 cells. The experiment in a line: Plasma membrane potential, DiBAC4(3) flow cytometry. As to conditions: AC16 cells exposed to TC for 10 minutes. It counts as cell-based, Human. As for the experimental part: Determination of the plasma membrane potential: AC16 cells were seeded into 12-well plates and cultured until reaching 80-90% confluence. Following removal of the culture medium, cells were exposed to HBSS (Hank's Balanced Salt Solution) containing […] TC for 10 minutes at 37 °C. Subsequently, cells were collected and incubated with 200 nM Bis-(1,3-Dibutylbarbituric Acid)-Trimethine Oxanol (DiBAC4(3), Solarbio) for 20 minutes at 37 °C. The fluorescence intensity of cells was then assessed using flow cytometry. To determine the impact of 1b (ammonium salt) on plasma membrane potential, 25×10^4 AC16 cells were co-incubated with 400 µM TC and varying concentrations of 1b (0, 400, 800, and 2000 µM) or exclusively with 1b (2000 µM) in HBSS for 10 minutes at 37 °C. Plasma membrane potential was subsequently evaluated using the aforementioned methodology.
On the technique in general: A flow cytometer gives signals particle by particle.

Where [8] appears, read: male, Kunming, mouse, iv, 0.45 mg/kg, C10 in plasma, Saline-treated Group.
Where [9] appears, read: male, Kunming, mouse, iv, 0.45 mg/kg, C10 in plasma, 1b-treated Group.

Values joined by “and” are separate entries in the source; they are usually repeats but may differ in a detail not shown here. Equal values may be shown once. Read-outs that look alike come from different tables or passages of the source.

From paper PMC11388068, “Amide naphthotube as a novel supramolecular sequestration agent for tetracaine and decamethonium” (Theranostics, 2024) come the findings set out here.

In general, ED50 refers to the dose that gives a 50% effect, or the effect in half of the subjects. As usually defined, the LD50 is the dose expected to kill half of the subjects tested. High values mean a less toxic substance, low ones a more toxic substance. In general, Tmax refers to the time from dosing to the highest level. By AUC(0-t) is commonly meant exposure summed from dosing to a finite time, without extrapolation to infinity. A lower AUC(0-t) goes with low exposure. By Cmax is commonly meant the peak of the concentration-time curve. One may read the IC50 as the concentration at which inhibition is half-maximal.

`C[N+](C)(C)CCCCCCCCCC[N+](C)(C)C` [C10, Decamethonium]: the average recovery time result with C10-induced paralysis is “approximately 402.8 seconds”. Further, the “ED95 for inducing muscle paralysis” value in the data set with Balb/c mice [1] was 0.53 mg/kg. Further, the ED50 in the data set with Balb/c mice [1] (Mus musculus, iv, read-out: ED50 for inducing muscle paralysis) was 0.37 mg/kg. Besides, the LD95 with mice stood at 0.86 mg/kg. Further, the LD50 in data set [2] turned out to be 0.69 mg/kg. In data set [3] (C10 in plasma, 1b-treated Group), the CL was determined as 1.12 ± 0.22 mL/h/g. For the same molecule, the CL in data set [3] (C10 in plasma, Saline-treated Group) worked out at 1.54 ± 0.16 mL/h/g. Moreover, in data set [3] (setting [8]), the Tmax turned out to be 3 min, the AUC(0-t) was 284 ± 26.4 ng·h/mL, the Cmax was determined as 1310 ± 179 ng/mL and the MRT last was found to be 6.6 ± 1.2 min. For the same molecule, in [3] (setting [8]), the MRT inf was determined as 9.6 ± 2.4 min, the half-life was 21.6 ± 9.6 min and the Vd was determined as 0.8 ± 0.33 L/kg. The AUC(0-inf) in [3] (male, Kunming, mouse, iv, 0.45 mg/kg, C10, 1b-treated Group, read-out: area under the plasma concentration-time curve (AUC0-∞)) turned out to be 414 ± 80.9 ng·h/mL. In [3] (male, Kunming, mouse, iv, 0.45 mg/kg, C10, saline-treated Group, read-out: area under the plasma concentration-time curve (AUC0-∞)), the AUC(0-inf) is 294 ± 28 ng·h/mL. In data set [3] (setting [9]), the AUC(0-t) is 406 ± 77.2 ng·h/mL, the concentration peaked (Cmax) at 1630 ± 345 ng/mL, the MRT last turned out to be 9 ± 1.2 min and the MRT inf came out at 10.2 ± 1.8 min. Further, in data set [3] (setting [9]), the half-life was 11.4 ± 1.2 min and the Vd was found to be 0.3 ± 0.06 L/kg. For the same molecule, the AUC(0-inf) in data set [3] (male, Kunming, mouse, iv, 0.45 mg/kg, C10 in plasma, 1b-treated Group, read-out: AUC0-∞) came out at 414 ± 80.9 ng·h/mL. In addition, the AUC(0-inf) in data set [3] (male, Kunming, mouse, iv, 0.45 mg/kg, C10 in plasma, Saline-treated Group, read-out: AUC0-∞) is 294 ± 28 ng·h/mL.

As for `CCCCNc1ccc(C(=O)OCCN(C)C)cc1` [TC, Tetracaine], in the data set with Balb/c mice [4], the LD50 was 6.9 mg/kg; the LD95 is 8.749 mg/kg and 8.7 mg/kg. Further, in [5], the LD50 turned out to be 6.92 mg/kg. The intracellular sodium loss entry in the data set on AC16 cells [6] is “approximately 20%”. In addition, the IC50 in the data set on Human myocytes AC16 cell was 384 µM. Besides, the “mean fluorescence intensity (plasma membrane potential)” value in the data set with AC16 cells [7] is given as “significant rise in mean fluorescence intensity”.
